Results reported in patent US20100092559A1 (OsteoGeneX Inc., priority 2008, published 2010).

What was measured:
mouse = experiment: micro-CT bone formation assay in mice for SOST antagonist candidates; assay type: in vivo; conditions: test vs control solution, complete dosing schedule
Description: Compounds useful in the methods of the present invention can be identified via a variety of methods known to one of skill in the art. Several exemplary methods for identifying such antagonists are described herein, including cell-based and in vitro techniques (Journal of Bone and Mineral Research 2006, 21(11), 1738-1749). A general method of identifying SOST antagonists involves evaluating the effects of antagonist candidates on bone formation under controlled conditions. Preferably bone formation is determined using micro-CT techniques on live animals. Preferred animals include rodents, more preferred are primates. Femur, tibia and vertebrae bones are particularly useful subjects for such study.
Briefly, the test animal is treated with a predetermined dose of a SOST antagonist candidate. […]
Once the dosing schedule has been completed, both test and control animals are examined to determine the quantity of bone formation present. […] Where necessary, levels of bone formation can be calculated by determining the volume of bone formation present in each animal. […]
For example, the mouse test animal is treated with a predetermined dose of a SOST antagonist candidate for a complete dosing schedule. […] Once the dosing schedule has been completed, both test and control animals are examined with sacrifice using micro-CT to determine the quantity of bone formation present.

Wnt pathway = Wnt pathway modulation to promote bone growth (FIG. 1); conditions: doses of 2.5 ng (low), 60 ng (medium), 125 ng (high)
C57BL/6 mice = experiment: Bone growth in four month old male C57BL/6 mice, daily i.p. for 30 days (uCT, histomorphometry, pQCT); assay type: in vivo, mouse
Method: Study endpoints included measurement of trabecular lumbar vertebrae 5 (LVB5) by uCT, showing 65% increase in bone volume over baseline at 75 mg/kg (FIG. 2).

COc1cc2c(cc1O)C[C@H]1c3c(cc(O)c(OC)c3-2)CCN1C [(S)-boldine]
bone growth (quantity of bone formation by micro-CT) (mouse): promoting bone growth
modulating the Wnt pathway to promote bone growth (Wnt pathway): modulating the Wnt pathway to promote bone growth
increase in BV/TV of femur over baseline controls, pQCT (C57BL/6 mice; 60 mg/kg): 8%
increase in bone volume over baseline, trabecular lumbar vertebrae 5 (LVB5) by uCT (C57BL/6 mice; 75 mg/kg i.p. daily for 30 days, male C57BL/6 mice, FIG. 2): 65%
increase in BV/TV in trabecular long bone over saline controls, histomorphometry (C57BL/6 mice; all animals in both L (0.75 mg/kg) and H (75 mg/kg) groups, i.p. daily 30 days, p=0.05): 78%
